According to patent publication US12134610B2, “Somatostatin subtype-2 receptor (SST2R) targeted therapeutics and uses thereof” (priority 2022, dated 2024):
Read-outs that look alike come from different tables or passages of the source. Starred links: 1 amine or outer side, 2 acyl side, 3 side chain; linkers in the order of their positions; H or OH if unused. Non-standard residues stand in square brackets, D forms with d. Residues, ends and D or L forms follow the SMILES beside them. *: point of attachment. PABC(3-O-βDGlc) = O=C(OCc1ccc(N[*:1])c(O[C@@H]2O[C@H](CO)[C@@H](O)[C@H](O)[C@H]2O)c1)[*:2]; X1 = Cc1cc(F)cc(-c2cnc(NCCNC(=O)CCOCCC(=O)*)c(-c3nc4ccc(Cl)cc4[nH]3)c2N2CCC(N)CC2)c1; Dolaproine = CO[C@@H]([C@@H]1CCCN1)[C@@H](C)C(=O)O; Dil = CC[C@H](C)[C@H](NC)[C@@H](CC(=O)O)OC; PABC = O=C(OCc1ccc(N[*:1])cc1)[*:2]; X2 = C[C@@H](N*)[C@@H](O)c1ccccc1; Cit = NC(=O)NCCC[C@H](N)C(=O)O; NMeV = CN[C@H](C(=O)O)C(C)C

Columns and labels:
Format in all cases: cell-based
SST2 = biological target: T1, SST2 (Homo sapiens, UniProt P30874); assay: PathHunter CHO-K1 SST2 internalization assay; details: PathHunter CHO-K1 SST2, 90 min
T1 construct: host or cells: PathHunter CHO-K1 SST2 cells
In short: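 IC50 comes from four-parameter curves on background-corrected duplicates of Beta-Glo luminescence, read after 60 min at room temperature in the dark. Before that, CHO-K1 SST2 internalization cells (48 h post-seeding) received SMDC as eleven threefold dilutions, 10 uM highest final, for 90 min at 37 C.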

[1] = biological target: T2, human somatostatin receptor subtype 2 (Homo sapiens, UniProt P30874); assay: Functional cAMP assay for SSTR2 agonists (HTRF) in CHO-K1 cells; details: CHO-K1 cells stably expressing human SST2, 20 min
T2 construct: expressed in transfected cells
In short: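 Agonism scored as loss of NKH477 (1.6 μM)-driven cAMP, with IBMX present, after 20 min, 37° C. exposure of stably transfected CHO-K1 cells to compound dilutions (typically 0-10,000 nM). Lysates read by time-resolved FRET; cAMP interpolated from standard curve and EC50 derived.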

[2] = tested on: NCI-H524 (ATCC) human small cell lung cancer cells
In short: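 CellTiter-Glo luminescence after a 2 h SMDC pulse (top dose 1 uM, 2-fold dilutions, 11 points), medium wash, then 70 h recovery. Cells were seeded at 5,000/well and dosed 24 h later. % inhibition vs control gave IC50 via four-parameter fit.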

T1 sequence (P30874 whole entry): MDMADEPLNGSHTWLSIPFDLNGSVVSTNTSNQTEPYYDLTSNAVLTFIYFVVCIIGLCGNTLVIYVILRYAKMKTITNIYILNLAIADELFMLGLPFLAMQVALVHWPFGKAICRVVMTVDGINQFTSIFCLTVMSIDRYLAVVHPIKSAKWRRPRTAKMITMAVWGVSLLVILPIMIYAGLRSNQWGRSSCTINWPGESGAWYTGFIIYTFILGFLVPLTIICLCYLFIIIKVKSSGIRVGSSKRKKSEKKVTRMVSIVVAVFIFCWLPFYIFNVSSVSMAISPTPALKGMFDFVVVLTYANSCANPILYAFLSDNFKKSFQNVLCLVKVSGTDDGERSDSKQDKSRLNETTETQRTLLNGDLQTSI
T2 sequence (P30874 whole entry): as above

Structure (SMILES)	EC50 (SST2; Internalization EC50 (nM)) [nM]	EC50 ([1]; hSST2 cAMP Avg EC50 (nM)) [nM]	EC50 ([2]; 2 h treatment, washout, additional 70 h, read-out: H524 EC50) [nM]	EC50 (SST2; read-out: Internalization EC50) [nM]	EC50 ([1]; read-out: hSST2 cAMP Avg EC50) [nM]	EC50 ([2]; 2 h) [nM]
CC[C@@]1(O)C(=O)OCc2c1cc1n(c2=O)Cc2c-1nc1cc(F)c(C)c3c1c2[C@@H](NC(=O)OCc1ccc(NC(=O)[C@H](C)NC(=O)[C@@H](NC(=O)CCOCCC(=O)NCCNc2ncc(-c4cc(C)cc(F)c4)c(N4CCC(N)CC4)c2-c2nc4ccc(Cl)cc4[nH]2)C(C)C)c(O[C@@H]2O[C@H](C(=O)O)[C@@H](O)[C@H](O)[C@H]2O)c1)CC3 [Compound 65]	1.5	0.27	250	–	–	–
CC[C@H](C)[C@@H]([C@@H](CC(=O)N1CCC[C@H]1[C@H](OC)[C@@H](C)C(=O)N[C@H](C)[C@@H](O)c1ccccc1)OC)N(C)C(=O)[C@@H](NC(=O)[C@H](C(C)C)N(C)C(=O)OCc1ccc(NC(=O)[C@H](CCCNC(N)=O)NC(=O)[C@@H](NC(=O)[C@H](CCC(=O)O)NC(=O)CCOCCC(=O)NCCNc2ncc(-c3cc(C)cc(F)c3)c(N3CCC(N)CC3)c2-c2nc3ccc(Cl)cc3[nH]2)C(C)C)c(O[C@@H]2O[C@H](CO)[C@@H](O)[C@H](O)[C@H]2O)c1)C(C)C [Compound 135] (X1-EV[Cit][PABC(3-O-βDGlc)][NMeV]V[Dil][Dolaproine]-X2)	–	–	–	2.8	0.15	38
CC[C@H](C)[C@@H]([C@@H](CC(=O)N1CCC[C@H]1[C@H](OC)[C@@H](C)C(=O)N[C@H](C)[C@@H](O)c1ccccc1)OC)N(C)C(=O)[C@@H](NC(=O)[C@H](C(C)C)N(C)C(=O)OCc1ccc(NC(=O)[C@H](CCCNC(N)=O)NC(=O)[C@@H](NC(=O)[C@@H](CCC(=O)O)NC(=O)CCOCCC(=O)NCCNc2ncc(-c3cc(C)cc(F)c3)c(N3CCC(N)CC3)c2-c2nc3ccc(Cl)cc3[nH]2)C(C)C)cc1)C(C)C [Compound 102] (X1-[dE]V[Cit][PABC][NMeV]V[Dil][Dolaproine]-X2)	–	–	–	19	0.067	130
CC[C@H](C)[C@@H]([C@@H](CC(=O)N1CCC[C@H]1[C@H](OC)[C@@H](C)C(=O)N[C@H](C)[C@@H](O)c1ccccc1)OC)N(C)C(=O)[C@@H](NC(=O)[C@H](C(C)C)N(C)C(=O)OCc1ccc(NC(=O)[C@H](CCCNC(N)=O)NC(=O)[C@@H](NC(=O)[C@@H](CC(=O)O)NC(=O)[C@@H](CC(=O)O)NC(=O)[C@@H](CC(=O)O)NC(=O)CCOCCC(=O)NCCNc2ncc(-c3cc(C)cc(F)c3)c(N3CCC(N)CC3)c2-c2nc3ccc(Cl)cc3[nH]2)C(C)C)cc1)C(C)C [Compound 109] (X1-[dD][dD][dD]V[Cit][PABC][NMeV]V[Dil][Dolaproine]-X2)	–	–	–	11	0.7	2500
CC[C@H](C)[C@@H]([C@@H](CC(=O)N1CCC[C@H]1[C@H](OC)[C@@H](C)C(=O)N[C@H](C)[C@@H](O)c1ccccc1)OC)N(C)C(=O)[C@@H](NC(=O)[C@H](C(C)C)N(C)C(=O)OCc1ccc(NC(=O)[C@H](CCCNC(N)=O)NC(=O)[C@@H](NC(=O)CCOCCOCCOCCOCCNCCNc2ncc(-c3cc(C)cc(F)c3)c(N3CCC(N)CC3)c2-c2nc3ccc(Cl)cc3[nH]2)C(C)C)c(O[C@@H]2O[C@H](C(=O)O)[C@@H](O)[C@H](O)[C@H]2O)c1)C(C)C [Compound 129]	–	–	–	21	0.34	290
CC[C@H](C)[C@@H]([C@@H](CC(=O)N1CCC[C@H]1[C@H](OC)[C@@H](C)C(=O)N[C@H](C)[C@@H](O)c1ccccc1)OC)N(C)C(=O)[C@H](C)NC(=O)[C@H](C(C)C)N(C)C(=O)OCc1ccc(NC(=O)[C@@H](NC(=O)[C@@H](NC(=O)CCN(C)CCC(=O)NCCNc2ncc(-c3cc(C)cc(F)c3)c(N3CCC(N)CC3)c2-c2nc3ccc(Cl)cc3[nH]2)C(C)C)C(C)C)c(O[C@@H]2O[C@H](C(=O)O)[C@@H](O)[C@H](O)[C@H]2O)c1 [Compound 154]	–	–	–	25	0.16	29
